Where a name gives a salt, the structure may show the parent alone. Read-outs that look alike come from different tables or passages of the source.
Assays:
[1] = tested on: Gadd45a, ATF3, SmagP, Cacna2d1; settings: rat, in vivo

C[C@@H]1C[C@H]2[C@@H]3CCC4=CC(=O)C=C[C@]4(C)[C@@]3(F)[C@@H](O)C[C@]2(C)[C@@]1(O)C(=O)CO [dexamethasone]
decrease in survival (PC12 cells; rat): 20%
myotoxicity (C2C12 cells; mouse): not myotoxic at up to 2 days
survival (C2C12 cells; mouse): 80±5%
viability (C2C12 cells; mouse): > 90%

CCCCN1CCCCC1C(=O)Nc1c(C)cccc1C (stereo not shown) [bupivacaine solution, bupivacaine hydrochloride]
neurotoxicity / cytotoxicity (PC12 cells): increased with concentration and duration of exposure
myotoxicity (C2C12 cells): increased with concentration and duration of exposure

CN(C)CCC=C1c2ccccc2CCc2ccccc21 [amitriptyline]
expression of Gadd45a, ATF3, SmagP, Cacna2d1 in dorsal root ganglia [1]: dramatically upregulated

— patent US20120034296A1 (priority 2009, published 2012)
